For 35 molecules, CC50 and IC50 results are on record in US10280179B2, “Spiroquinoxaline derivatives as inhibitors of non-apoptotic regulated cell-death” (Helmholtz Zentrum Munchen—Deutches Forschungszentrum Fur …, priority 2013, dated 2019).

Assay type in all cases: cell-based
A short description of series [1]: Cellular toxicity, same assay as Example B.4 without TAM (Example B.5). Particulars: mouse; Pfa1 cells without TAM; read-out: TC50 (the source's name). From the text: Cellular Toxicity of Compounds of the Invention
An estimate of the toxicity for compounds of the invention was obtained by using the same assay as described in Example B.4, but without the addition of TAM. […] Such TC50 values obtained for certain compounds disclosed herein, together with an approximate therapeutic window (estimated by dividing each TC50 by the corresponding IC50 determined from example B.4) are shown in Table 3.

Series [2] has as its system mouse hippocampal cell line (Ht22). The series is described as follows: Inhibition of glutamate-induced non-apoptotic cell death (Example B.2). As to conditions: HT-22, Ht22 cells, glutamate-induced cell death, read-out: Ht22/GLU. The text has this:
Inhibition of Glutamate-Induced Non-Apoptotic Cell Death by Compounds of the Present Invention
Glutamate toxicity is conferred on cells from the mouse hippocampal cell line (Ht22) by inhibition of the cysteine/glutamate antiporter, System xc-, leading to impaired cysteine uptake and subsequent GSH depletion. This model is frequently used for mimicking glutathione depletion following oxidative stress in stroke, brain trauma and other neurodegenerative diseases and cellular conditions following ischemia (for example: van Leyen et al, J. Neurochem. 92:824-30 (2005)).
Compounds disclosed herein were evaluated for their ability to promote cell survival upon administration of a lethal dose of glutamate (GLU) to the cell-culture medium.
Briefly, Ht22 cells (ATCC) were propagated DMEM supplemented with 10% FBS/1% Penicillin-Streptomycin, and then seeded onto 96-well plates at a concentration of 2,000 cells/well in 100 μL of MEDIA, simultaneously with glutamate (Sigma Aldrich) to a final concentration of 5 mM, together with increasing concentrations of the compound to be tested (0.5 pM to 100 μM), and the plates incubated at 37° C./5% CO2 for 72 hours. Compound dilutions were prepared from 10 mM stocks dissolved in DMSO and diluted in media. Cells treated with glutamate alone were used as negative control and alpha-tocopherol (Sigma Aldrich) was used as positive control. Compound concentrations were tested in triplicate. After incubation, cell survival was detected and quantified as described in Example B.1.

Series [3] concerns human neuroblastoma cell line SH-SY5Y. The series is described as follows: Inhibition of BSO-induced non-apoptotic cell death (Example B.1). As to conditions: SH-SY5Y cells, 50 μM BSO, 72 hours, read-out: SH-SY5Y/BSO IC50. From the text:
Inhibition of BSO-Induced Non-Apoptotic Cell Death by Compounds Disclosed Herein
L-Buthionine sulfoximine (BSO) is a well-known glutathione (GSH) depletory, which inhibits gamma-glutamyl-cysteine-synthetase, the enzyme catalyzing the rate-limiting step in GSH biosynthesis. The human neuroblastoma cell line SH-SY5Y is sensitive to BSO-induced intracellular glutathione depletion, which causes high levels of reactive oxygen species (ROS) and cellular stress mimicking cellular conditions following ischemia (cf., e.g., Yamada et al., Neurochem. Int. 59:1003-9 (2011)).
Compounds disclosed herein were evaluated for their ability to promote cell survival upon administration of a lethal dose of BSO to cell-culture medium. Briefly, SH-SY5Y cells (ATCC® CRL-2266™) were propagated in DMEM supplemented with 10% FBS/1% Penicillin-Streptomycin, and then seeded onto 96-well plates at a concentration of 750 cells/well in 100 μL of media, to which BSO (Sigma Aldrich) was added (to a final concentration of 50 μM) together with increasing concentrations of the compound to be tested, and the plates incubated at 37° C./5% CO2 for 72 hours. Compound dilutions (0.5 pM to 100 μM) were prepared from 10 mM stocks dissolved in DMSO and diluted in media. Cells treated with BSO alone were used as negative control and alpha-Tocopherol (Sigma Aldrich) was used as positive control. Compound concentrations were tested in triplicate. After incubation, cell survival was detected using the live/dead cell assay AquaBluer™ (MultiTarget Pharmaceuticals) and quantified using a fluorescence plate reader (excitation filter: 530-560 nm/emission filter: 590 nm) (SpectraMax M4; Molecular Devices). Fluorescence data so obtained was normalised to the percentage of surviving cells and IC50 values calculated using the GraphPad Prism (GraphPad Software, Inc) software package.

The test system of series [4] is Pfa1 cells. The series is described as follows: Inhibition of non-apoptotic cell death after tamoxifen-induced GPx4 knockout in a recombinant cell line (Example B.4). As to conditions: Mus musculus, read-out: Pfa1/TAM IC50. The text has this: Inhibition of Non-Apoptotic Cell-Death by Compounds Disclosed Herein Using a Recombinant Cell Line
To combat high intracellular ROS levels, mammalian cells have evolved an intricate network of ROS scavenging in cells, in which the thioredoxin and glutathione (GSH) dependent systems prevail. […] Knockout of GPx4 in neurons causes massive neurodegeneration in cortical, cerebellar and hippocampal neurons underscoring the high relevance of ROS-induced cell death signaling in the brain. Briefly, immortalised fibroblasts from these mice were made to contain tamoxifen-inducible CreERT2, which catalyzes the functional ablation of both copies of GPx4 and resulting in a complete knockout of GPx4, a massive ROS burst, and cell death in cell culture. These cells (Pfa1 cells) were used to characterize compounds of the present invention, whereby tamoxifen (TAM) was given on day 0 along with the compound under test, and 72 hours later cell survival was evaluated using AlamarBlue.

Some results are limits rather than exact numbers.

`Clc1cccc(CNC2=Nc3cc4c(cc3NC23CCCCC3)OCCO4)c1` [C-227]: the CC50 in series [1] was in the range of 20 to 50 µM. Also, the values for the IC50 in series [2], in series [3] and in series [4] were below 1 µM, below 0.5 µM and below 0.05 µM, respectively.
With `CCCCCCCCCCCCN1CCC2(CC1)Nc1ccccc1N=C2NCc1ccccc1` [N-261], the CC50 in series [1] lay in the range of 2 to 5 µM. The IC50 in series [2] was below 0.2 µM; in series [3], below 0.02 µM; in series [4] it was below 0.1 µM.
On to `CC1(C)CCC2(CC1)Nc1ccccc1N=C2NCc1ccccc1` [C-253], for which the CC50 in series [1] lay in the range of 10 to 20 µM. In addition, the IC50 in series [2] was below 1 µM; in series [3] it was below 0.1 µM; in series [4], below 1 µM.
As to `Fc1cc2c(cc1F)NC1(CCNCC1)C(NCc1ccccc1Cl)=N2` [N-259], the CC50 in series [1] was in the range of 1 to 2 µM. Moreover, the values for the IC50 in series [2], in series [3] and in series [4] were below 0.05 µM, below 0.01 µM and below 0.05 µM, respectively.
As to `Clc1cccc(CNC2=Nc3ccccc3NC23CCCCCCC3)c1` [C-206], the CC50 in series [1] lay in the range of 5 to 10 µM. Further, the results for the IC50 in series [2], in series [3] and in series [4] were below 0.5 µM, below 0.05 µM and below 0.5 µM, respectively.
For the molecule `FC(F)(F)c1cccc(CNC2=Nc3ccccc3NC23CCNCC3)c1` [N-23], the CC50 in series [1] was 20 to 50 µM. Besides, the IC50 in series [2] was below 0.05 µM; in series [3] it was below 0.02 µM; in series [4], below 0.05 µM.
Consider `O=S1(=O)CCC2(CC1)Nc1ccccc1N=C2NCc1ccccc1` [O/S-363], for which the CC50 in series [1] fell in the range of 10 to 20 µM. For the same molecule, the figures for the IC50 in series [2], in series [3] and in series [4] were below 5 µM, below 2 µM and below 2 µM, respectively.
For `Fc1cc2c(cc1F)NC1(CCCCC1)C(NCc1cccc(Cl)c1)=N2` [C-137], the CC50 in series [1] is 10 to 20 µM. Further, the IC50 in series [2], in series [3] and in series [4] was below 0.2 µM in each case.
On to `CN1CCC2(CC1)Nc1cc(Cl)c(Cl)cc1N=C2NCc1ccccc1` [N-230], for which the CC50 in series [1] is 0.5 to 1 µM. For the same molecule, the IC50 in series [2], in series [3] and in series [4] was below 0.01 µM in each case.
As to `FC(F)(F)c1cccc(CNC2=Nc3cc(Cl)c(Cl)cc3NC23CCCCCC3)c1` [C-260], the CC50 in series [1] fell in the range of 5 to 10 µM. Also, the IC50 in series [2] was below 0.5 µM; in series [3], below 0.05 µM; in series [4], below 0.2 µM.
The corresponding values for `Cc1cc2c(cc1C)NC1(CCOCC1)C(NCc1ccccc1)=N2` [O/S-340] are 20 to 50 µM, below 0.5 µM, below 0.2 µM and below 0.5 µM.
As for `CC1CN(C)CCC12Nc1ccccc1N=C2NCc1ccccc1` (stereo not drawn) [N-256], in series [1], the CC50 lay in the range of 10 to 20 µM. For the same molecule, the IC50 in series [2] was below 0.5 µM; in series [3], below 0.05 µM; in series [4], below 0.5 µM.
As to `Cc1cc(C)cc(CNC2=Nc3ccccc3NC23CCOCC3)c1` [O/S-344], the CC50 in series [1] lay in the range of 20 to 50 µM. Also, the IC50 is below 2 µM in series [2] and below 1 µM in series [4].
For the molecule `Cc1cc2c(cc1C)NC1(CCCCC1)C(NCc1ccccc1)=N2` [C-218], in series [1], the CC50 lay within 20 to 50 µM. Besides, the IC50 in series [2] and in series [4] was below 0.1 µM in each case.
In the case of `FC(F)(F)c1cccc(CNC2=Nc3ccccc3NC23CCCCC3)c1` [C-23], the CC50 in series [1] fell in the range of 10 to 20 µM. Besides, the IC50 was below 0.5 µM in series [2] and below 0.05 µM in series [4].
As for `Clc1ccc(CNC2=Nc3ccccc3NC23CCNCC3)c(Cl)c1` [N-56], the CC50 in series [1] was 1 to 2 µM. In addition, the IC50 in series [2] was below 0.05 µM; in series [4] it was below 0.01 µM.
For `Fc1ccc(CNC2=Nc3ccccc3NC23CCOCC3)c(F)c1` [O/S-355], in series [1], the CC50 lay within 50 to 100 µM. Besides, the IC50 in series [2] and in series [4] was below 2 µM each time.
As for `Clc1cccc(CCNC2=Nc3ccccc3NC23CCOCC3)c1` [O/S-79], the CC50 in series [1] fell in the range of 20 to 50 µM. The IC50 in series [2] and in series [4] was below 1 µM each time.
Consider `Cc1cccc(CNC2=Nc3ccccc3NC23CCOCC3)c1` [O/S-11], for which, in series [1], the CC50 was in the range of 50 to 100 µM. Further, the IC50 in series [2] was below 5 µM; in series [4], below 2 µM.
`Cc1cccc(CNC2=Nc3ccccc3NC23CCCCC3)c1` [C-11]: the CC50 in series [1] fell in the range of 10 to 20 µM. The IC50 in series [2] is below 1 µM; in series [4], below 0.5 µM.
For the molecule `CC(CCc1ccccc1)NC1=Nc2ccccc2NC12CCCCC2` (stereo not drawn) [C-233], the CC50 in series [1] is 20 to 50 µM. Moreover, the IC50 in series [2] and in series [4] was below 1 µM each time.
As for `Fc1cccc(F)c1CNC1=Nc2ccccc2NC12CCSCC2` [O/S-351], the CC50 in series [1] lay within 50 to 100 µM. In addition, the IC50 in series [2] and in series [4] was below 1 µM throughout.
On to `Cc1cc2c(cc1C)NC1(CCN(C)CC1)C(NCc1ccccc1)=N2` [N-233], for which the CC50 in series [1] fell in the range of 10 to 20 µM. In addition, the IC50 in series [2] was below 0.1 µM; in series [4] it was below 0.2 µM.
For `Fc1ccc(CNC2=Nc3ccccc3NC23CCNCC3)c(F)c1` [N-221], in series [1], the CC50 was in the range of 20 to 50 µM. Also, the IC50 in series [2] and in series [4] was below 0.2 µM in each case.
Consider `CC(C)(C)c1ccc(CNC2=Nc3ccccc3NC23CCNCC3)cc1` [N-227], for which the CC50 in series [1] lay in the range of 0.5 to 1 µM. For the same molecule, the IC50 in series [2] and in series [4] was below 0.01 µM each time.
With `Clc1cc2c(cc1Cl)NC1(CCNCC1)C(NCc1ccccc1Cl)=N2` [N-207], in series [1], the CC50 lay within 0.5 to 1 µM. The IC50 was below 0.05 µM in series [2] and below 0.01 µM in series [4].
Turning to `Fc1ccc(CNC2=Nc3ccccc3NC23CCCCC3)c(F)c1` [C-231], the CC50 in series [1] was in the range of 20 to 50 µM. The figures for the IC50 in series [2] and in series [4] were below 1 µM and below 0.5 µM, respectively.
On to `Clc1ccccc1CNC1=Nc2ccccc2NC12CCSCC2` [O/S-167], for which the CC50 in series [1] fell in the range of 20 to 50 µM. In addition, the figures for the IC50 in series [2] and in series [4] were below 1 µM and below 0.5 µM, respectively.
For the molecule `Cc1cc(C)cc(CNC2=Nc3ccccc3NC23CCCCC3)c1` [C-225], the CC50 in series [1] lay in the range of 10 to 20 µM. Further, the IC50 in series [2] and in series [4] was below 0.5 µM in each case.
On to `c1ccc(CCCCNC2=Nc3ccccc3NC23CCOCC3)cc1` [O/S-358], for which the CC50 in series [1] was in the range of 10 to 20 µM. The IC50 in series [2] and in series [4] was below 2 µM throughout.
Consider `Fc1cc2c(cc1F)NC1(CCCCC1)C(NCc1ccccc1)=N2` [C-238], for which, in series [1], the CC50 was in the range of 20 to 50 µM. The IC50 was below 0.2 µM in series [2] and below 0.5 µM in series [4].
The corresponding values for `Fc1cc(Cl)ccc1CNC1=Nc2ccccc2NC12CCCCC2` [C-61] are 20 to 50 µM, below 0.5 µM and below 0.2 µM.
The corresponding values for `CC(CCc1ccccc1)NC1=Nc2ccccc2NC12CCOCC2` (stereo not drawn) [O/S-353] are 20 to 50 µM, below 2 µM and below 0.5 µM.
The corresponding values for `c1ccc(CNC2=Nc3ccccc3NC23CCCCCCC3)cc1` [C-236] are 10 to 20 µM, below 0.5 µM and below 0.5 µM.
On to `Fc1cccc(F)c1CNC1=Nc2ccccc2NC12CCCCC2` [C-222], for which the CC50 in series [1] lay within 20 to 50 µM. Further, the IC50 is below 1 µM in series [2] and below 0.2 µM in series [4].
